# Experimental data from US7060822B1, “2-pyrazolin-5-ones” (Abbott GmbH & Co. KG, priority 1999, dated 2006).
row,Structure (SMILES),melting point [°C]
1,"COc1ccc(NC(=O)CC2=NNC(=O)C2=Cc2c[nH]c3ccccc23)cc1 [Example 255, 4-[(Indol-3-yl)methylene]-3-(4-methoxyphenylaminocarbonylmethyl)-2-pyrazolin-5-one]",> 300
2,"O=C1NN=C(C2CC2)C1=Cc1c[nH]c2ccccc12 [Example 256, 3-Cyclopropyl-4-[(indol-3-yl)methylene]-2-pyrazolin-5-one]",300 to 305
3,"NC(=O)CCC1=NNC(=O)C1=Cc1c[nH]c2ccccc12 [Example 258, 3-(2-Aminocarbonylethyl)-4-[(indol-3-yl)methylene]-2-pyrazolin-5-one]",280 to 281
4,"O=C1NN=C(C2CCC2)C1=Cc1c[nH]c2ccccc12 [Example 259, 3-Cyclobutyl-4-[(indol-3-yl)methylene]-2-pyrazolin-5-one]",> 300
5,"CN(C)C(=O)CCC1=NNC(=O)C1=Cc1c[nH]c2ccccc12 [Example 260, 3-(2-Dimethylaminocarbonylethyl)-4-[(indol-3-yl)methylene]-2-pyrazolin-5-one]",258 to 260
6,"O=C1NN=C(C2CC2)C1=Cc1cn(CCCCO)c2ccccc12 [Example 261, 3-Cyclopropyl-4-{[1-(4-hydroxybutyl)indol-3-yl]methylene}-2-pyrazolin-5-one]",215 to 216
7,"O=C1NN=C(c2ccncc2)C1=Cc1c[nH]c2ccccc12 [Example 262, 4-[(Indol-3-yl)methylene]-3-(4-pyridyl)-2-pyrazolin-5-one]",> 300
8,"O=C1NN=C(C2CCCC2)C1=Cc1c[nH]c2ccccc12 [Example 263, 3-Cyclopentyl-4-[(indol-3-yl)methylene]-2-pyrazolin-5-one]",300 to 304
9,"CC1(C)C(C2=NNC(=O)C2=Cc2c[nH]c3ccccc23)C1(C)C [Example 264, 4-[(Indol-3-yl)methylene]-3-(2,2,3,3-tetramethylcyclopropyl)-2-pyrazolin-5-one]",296 to 298
10,"CC1CC1C1=NNC(=O)C1=Cc1c[nH]c2ccccc12 (stereo not drawn) [Example 265, 4-[(Indol-3-yl)methylene]-3-(2-methylcyclopropyl)-2-pyrazolin-5-one]",294 to 296
11,"O=C1NN=C(C2CCCCC2)C1=Cc1cn(CCCCO)c2ccccc12 [Example 266, 3-Cyclohexyl-4-{[1-(4-hydroxybutyl)indol-3-yl]methylene}-2-pyrazolin-5-one]",226 to 227
12,"O=C1NN=C(c2ccncc2)C1=Cc1cn(CCCCO)c2ccccc12 [Example 267, 4-{[1-(4-Hydroxybutyl)indol-3-yl]methylene}-3-(4-pyridyl)-2-pyrazolin-5-one]",224 to 225
13,"O=C1NN=C(c2nc3ccccc3s2)C1=Cc1c[nH]c2ccccc12 [Example 268, 3-(Benzothiazol-2-yl)-4-[(indol-3-yl)methylene]-2-pyrazolin-5-one]",> 300
14,"O=C1NN=C(c2ccccn2)C1=Cc1c[nH]c2ccccc12 [Example 269, 4-[(Indol-3-yl)methylene]-3-(2-pyridyl)-2-pyrazolin-5-one]",278 to 280
15,"CN(C)C1=NNC(=O)C1=Cc1c[nH]c2ccccc12 [Example 270, 3-Dimethylamino-4-[(indol-3-yl)methylene]-2-pyrazolin-5-one]",258 to 260
16,"O=C1NN=C(c2ccc[nH]2)C1=Cc1c[nH]c2ccccc12 [Example 271, 4-[(Indol-3-yl)methylene]-3-(pyrrol-2-yl)-2-pyrazolin-5-one]",300 to 302
17,"COc1ccc2nc(C3=NNC(=O)C3=Cc3c[nH]c4ccccc34)sc2c1 [Example 272, 4-[(Indol-3-yl)methylene]-3-(6-methoxybenzothiazol-2-yl)-2-pyrazolin-5-one]",> 300
18,"Cn1cc(C=C2C(=O)NN=C2C2CC2)c2ccccc21 [Example 273, 3-Cyclopropyl-4-[(1-methylindol-3-yl)methylene]-2-pyrazolin-5-one]",245 to 247
